Results as given in US11723877B2, “Microencapsulation process and product” (SPI PHARMA, INC., priority 2010, dated 2023).
Each block holds one compound with its values, some of them ahead of it.

Key:
[1] = Acetaminophen dissolution, USP method (900 mL water, 50 rpm, Apparatus 2); assay type: physicochemical; settings: first of five data columns, no own time in head (taken as 0 min)
Description: Acetaminophen dissolution was compared between microcapsules prepared from Run #2 and Run #4, an uncoated acetaminophen standard and a commercial acetaminophen coated with ethylcellulose by USP dissolution method for Acetaminophen (900 mL water, 50 rpm, Apparatus 2).

[2] = Dissolution of orally dispersible acetaminophen powder, USP apparatus IV flow through cell, phosphate buffer pH 5.8; assay type: physicochemical; settings: phosphate buffer pH 5.8, 37° C., 16 mL/min, 900 mL, ODP 160 mg, average of two
Description: A USP apparatus IV flow through cell was used to measure the dissolution of three orally dispersible powder blends of acetaminophen. Powder blends were made up of: Example 7 (SPI Pharma); uncoated Acetaminophen (Covidien, St. Louis, Mo.)) special granular; and Eurand (Dayton, Ohio) taste-masked Acetaminophen. Each sample was weighed and mixed by the process of spatulation until mixed. This mixture was passed through #30 mesh ASTM and packed in stick packs.
(§1) An amount of sample equivalent to contain 160 mg of Acetaminophen was weighed out and placed in the bead mixture of the flow through cell. At a rate of 16 ml/min, a 37° C. pH 5.8 phosphate buffer was pumped through cell and the effluent from the cell was collected in a reservoir vessel and samples removed for subsequent analysis in HPLC for Acetaminophen content at the time point specified. The data is an average of two determinations.

physchem = settings: aqueous buffer
[3] = Dissolution of orally dispersible ibuprofen powder, USP apparatus IV flow through cell, phosphate buffer pH 7.2; assay type: physicochemical; settings: phosphate buffer pH 7.2, 37° C., 16 mL/min, 900 mL, ODP 200 mg, average of two
Description: A USP apparatus IV flow through cell was used to measure the dissolution of three orally dispersible powder blends of Ibuprofen. Powder blends were made up of: Example 6 (SPI Pharma); uncoated Ibuprofen 50 (BASF, Florham Park, N.J.); and Dasan Medichem (Soul, Korea) taste-masked Ibuprofen. Each sample was weighed and mixed by the process of spatulation until mixed. This mixture was passed through #30 mesh ASTM and packed in stick packs.
as §1, with “200” for “160”, “Ibuprofen” for “Acetaminophen”, “7.2” for “5.8”

Structure (SMILES): CC(=O)Nc1ccc(O)cc1 [Uncoated Acetaminophen STD, Acetaminophen]
Percent (%) Drug Released [1]: 0%

Structure (SMILES): CC(=O)Nc1ccc(O)cc1 [Uncoated Acetaminophen, Acetaminophen]
Acetaminophen dissolution % ([2]; 5 min): 95%
Acetaminophen dissolution % ([2]; 10 min): 96%
Acetaminophen dissolution % ([2]; 15 min): 96%
Acetaminophen dissolution % ([2]; 30 min): 96%
Acetaminophen dissolution % ([2]; 45 min): 96%
Acetaminophen dissolution % ([2]; 60 min): 96%

solubility (physchem): < 1000 µM
Structure (SMILES): CC(C)Cc1ccc(C(C)C(=O)O)cc1 (centres unmarked) [uncoated ibuprofen, ibuprofen]

Ibuprofen dissolution % ([3]; 5 min): 70%
Ibuprofen dissolution % ([3]; 10 min): 88%
Ibuprofen dissolution % ([3]; 20 min): 91%
Ibuprofen dissolution % ([3]; 30 min): 94%
Ibuprofen dissolution % ([3]; 45 min): 94%
Ibuprofen dissolution % ([3]; 60 min): 94%
Structure (SMILES): CC(C)Cc1ccc(C(C)C(=O)O)cc1 (centres unmarked) [Plain API, Ibuprofen]
